According to publication PMC7280195, “Simple ammonium salts acting on sigma-1 receptors yield potential treatments for cancer and depression” (Scientific Reports, 2020):
Where a name gives a salt, the structure may show the parent alone. Read-outs that look alike come from different tables or passages of the source.

Tests used:
sigma-2 receptor = target: T1, sigma-2 receptor (Homo sapiens, UniProt Q5BJF2); assay: biochemical; assay type: binding
T1 construct: MCF7 cells were suspended in sigma-2 assay buffer (50 mM Tris-HCl; pH 8.0), sonicated (1 minute) and the homogenate was centrifuged; endogenous in cells; host or cells: MCF7 cells (gift), membrane pellet

mice [1] = assay: Forced-swim test; assay type: in vivo
MDA-MB-468 cells [2] = assay: cells; assay type: cell-based
MCF7 cells = assay type: cell-based
MDA-MB-468 cells [3] = assay: Fura-2 cytoplasmic calcium measurement in MDA-MB-468 cells; assay type: cell-based
[4] = target: muscarinic acetylcholine receptor; assay type: binding, rat; details: for mACh R affinity pKi ± SEM (n) / Ki: rat brain membranes; for mACh R affinity pKi ± SEM (n): 1.35 nM [3H] QNB; for Ki: read-out: mACh R affinity Ki; for mACh R Ki/σ-1 R Ki: ratio between Ki values
MAC13 cells = assay: MTS assay in MAC13 cells in vitro; assay type: cell-based, mouse; details: mean ± SEM, n = 6
Experimental: Cells (10,000 cells per well, 100 μl) were seeded into 96-well plates and allowed to adhere overnight. The following day drugs were added and cells were permitted to proliferate for 24 hours before the addition of 10 μl CellTiter 96 AQueous Non-Radioactive Cell Proliferation Assay reagent (Promega, Southampton, UK) as previously described. Absorbance (490 nm) readings were taken at 0, 1, 2 and 3 hours to monitor formazan formation and rates of metabolic activity were compared.

MAC13 tumours = details: for MAC13 tumour growth compared to vehicle control: 10 mg.kg−1 i.v. daily from day 12, P < 0.001; for tolerability in tumour-bearing mice: 10 mg.kg−1 i.v. daily, grooming activity maintained
mice [5] = assay: Tail suspension test; assay type: in vivo
Experimental: Animals were acclimatised to laboratory conditions before the experiment. Each animal was used only once. […] All drugs were dissolved in normal saline and different doses were administered intraperitoneally in a fixed volume of 1 ml.100 g^−1 body weight 30 minutes before the animals were subjected to the test. […] Each mouse was considered immobile when it hung passively and completely motionless. The total immobility period was recorded and compared to vehicle control group.

mice [6] = assay: Locomotor activity (Actophotometer); assay type: in vivo; details: control 140 ± 15
Experimental: All drugs were dissolved in normal saline and different doses were administered intraperitoneally in a fixed volume of 1 ml.100 g^−1 body weight 30 minutes before the animals were subjected to the test.
Locomotor activity (ambulations) was measured by using a computerised Actophotometer (IMCORP, India). […] Mice were allowed to acclimatise to the observation chamber for a period of 2 minutes. The activity was monitored continuously for a period of 15 minutes. Locomotion was expressed in terms of total photobeam counts per 15 minutes per animal and compared to vehicle control groups as previously described.

human 5-HT transporter = human 5-HT transporter (Homo sapiens, UniProt P31645); assay type: cell-based; details: for IC50: read-out: IC50 serotonin reuptake
[7] = target: T2, human dopamine transporter (Homo sapiens, UniProt Q01959); assay: Monoamine transporter uptake assay, 293 cells expressing dopamine transporter; assay type: cell-based; details: for IC50: read-out: IC50 dopamine transport
T2 construct: expressed in transfected cells

[8] = target: human noradrenaline transporter (Homo sapiens, UniProt P23975); assay: Monoamine transporter uptake assay, 293 cells expressing noradrenaline transporter; assay type: cell-based; details: for IC50: read-out: IC50 noradrenaline transport
[9] = dipentylammonium 5 mg.kg−1 plus BD1047 4 mg.kg−1

T1 sequence (Q5BJF2 whole entry): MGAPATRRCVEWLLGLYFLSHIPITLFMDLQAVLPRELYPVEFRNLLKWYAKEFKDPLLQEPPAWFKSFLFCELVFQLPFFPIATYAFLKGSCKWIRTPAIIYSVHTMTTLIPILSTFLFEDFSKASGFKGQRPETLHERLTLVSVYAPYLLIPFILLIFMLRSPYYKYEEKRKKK
T2 sequence (Q01959 whole entry): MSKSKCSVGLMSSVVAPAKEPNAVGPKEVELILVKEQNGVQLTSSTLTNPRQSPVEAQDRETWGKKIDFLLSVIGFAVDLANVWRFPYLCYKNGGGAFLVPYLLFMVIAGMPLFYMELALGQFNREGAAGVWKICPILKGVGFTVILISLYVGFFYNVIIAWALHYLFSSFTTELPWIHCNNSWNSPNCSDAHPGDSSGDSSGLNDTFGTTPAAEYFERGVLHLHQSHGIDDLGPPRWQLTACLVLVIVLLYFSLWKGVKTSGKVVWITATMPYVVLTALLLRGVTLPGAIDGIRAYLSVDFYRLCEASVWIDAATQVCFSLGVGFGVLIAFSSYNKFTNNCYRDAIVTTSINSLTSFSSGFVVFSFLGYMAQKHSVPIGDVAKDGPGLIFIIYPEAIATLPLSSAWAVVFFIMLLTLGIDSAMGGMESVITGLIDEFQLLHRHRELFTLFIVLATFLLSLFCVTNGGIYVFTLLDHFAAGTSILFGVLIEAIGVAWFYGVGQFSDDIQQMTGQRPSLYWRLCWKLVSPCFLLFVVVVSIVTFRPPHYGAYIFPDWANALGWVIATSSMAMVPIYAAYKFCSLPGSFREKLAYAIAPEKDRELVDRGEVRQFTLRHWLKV
Chain of human 5-HT transporter (P31645 whole entry): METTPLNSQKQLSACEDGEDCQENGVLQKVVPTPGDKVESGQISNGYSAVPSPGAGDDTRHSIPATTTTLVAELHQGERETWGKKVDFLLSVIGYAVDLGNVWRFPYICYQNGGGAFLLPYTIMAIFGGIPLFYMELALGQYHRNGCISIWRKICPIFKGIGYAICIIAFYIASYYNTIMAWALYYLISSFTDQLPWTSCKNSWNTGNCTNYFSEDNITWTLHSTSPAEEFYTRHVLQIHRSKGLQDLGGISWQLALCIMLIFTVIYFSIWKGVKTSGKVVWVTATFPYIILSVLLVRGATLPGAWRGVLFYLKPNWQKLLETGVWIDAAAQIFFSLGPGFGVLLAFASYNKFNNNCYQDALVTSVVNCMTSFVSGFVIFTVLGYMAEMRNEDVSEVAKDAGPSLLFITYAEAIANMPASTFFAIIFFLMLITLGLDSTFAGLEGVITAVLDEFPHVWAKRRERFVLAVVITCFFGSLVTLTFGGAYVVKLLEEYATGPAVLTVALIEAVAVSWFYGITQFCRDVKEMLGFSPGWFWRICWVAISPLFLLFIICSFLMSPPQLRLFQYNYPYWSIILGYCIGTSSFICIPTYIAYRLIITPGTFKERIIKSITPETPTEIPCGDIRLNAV
Chain of human noradrenaline transporter (P23975 whole entry): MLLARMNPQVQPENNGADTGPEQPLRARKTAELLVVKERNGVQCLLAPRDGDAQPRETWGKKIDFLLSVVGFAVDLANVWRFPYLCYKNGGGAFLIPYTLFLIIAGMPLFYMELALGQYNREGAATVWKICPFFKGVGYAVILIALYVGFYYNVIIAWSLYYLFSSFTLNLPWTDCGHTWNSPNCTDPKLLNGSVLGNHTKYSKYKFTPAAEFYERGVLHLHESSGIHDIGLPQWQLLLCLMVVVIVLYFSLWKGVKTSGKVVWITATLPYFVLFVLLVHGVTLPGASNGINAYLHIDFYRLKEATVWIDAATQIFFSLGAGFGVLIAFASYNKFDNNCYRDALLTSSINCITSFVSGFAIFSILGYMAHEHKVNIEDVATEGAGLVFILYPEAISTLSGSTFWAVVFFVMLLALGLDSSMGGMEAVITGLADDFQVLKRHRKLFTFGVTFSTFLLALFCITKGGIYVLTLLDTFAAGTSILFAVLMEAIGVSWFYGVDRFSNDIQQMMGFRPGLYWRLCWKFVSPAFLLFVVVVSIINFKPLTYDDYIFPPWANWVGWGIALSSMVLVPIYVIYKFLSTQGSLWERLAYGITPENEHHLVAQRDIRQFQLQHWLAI

Molecule: NC1C2CC3CC(C2)CC1C3 (stereo not drawn) [2-adamantyl]
- σ-2 R affinity pKi ± SEM (n) (sigma-2 receptor): 5.5 ± 0.2 (3)
- Ki (sigma-2 receptor; read-out: σ-2 R affinity Ki): 3.5 µM

Molecule: CN(C)CCN(C)CCc1ccc(Cl)c(Cl)c1 [BD1047, N’-[2-(3,4-dichlorophenyl)ethyl]-N,N,N’-trimethylethane-1,2-diamine, reference compound]
- time spent immobile, forced-swim test (mice [1]; ip, 4 mg/kg, 0.1 h): 217 ± 17 s

Molecule: CCCCC(CC)CNCC(CC)CCCC (stereo not drawn) [Bis(2-ethylhexyl), bis(2-ethylhexyl)ammonium]
- σ-2 R affinity pKi ± SEM (n) (sigma-2 receptor): 4.0 ± 0.2 (3)
- Ki (sigma-2 receptor; read-out: σ-2 R affinity Ki): 91 µM
- pIC50 reduction of cell metabolism (MDA-MB-468 cells [2]): 3.3 ± 0.1
- pIC50 reduction of cell metabolism, non-targeting control (MDA-MB-468 cells [2]): 3.37 ± 0.08
- effect on MCF7 cells in MTS assay (MCF7 cells): without effect
- pEC50 calcium response (MDA-MB-468 cells [3]; Fura-2 loaded MDA-MB-468 cells): 2.9 ± 0.1
- mACh R affinity pKi ± SEM (n) [4]: 3.9 ± 0.2 (6)
- Ki [4]: 120 µM
- mACh R Ki/σ-1 R Ki [4]: 4.1
- pIC50 reduction in MAC13 cell metabolism (MAC13 cells): 5.3 ± 0.2
- MAC13 tumour growth compared to vehicle control (MAC13 tumours): statistically significant reduction in tumour growth
- tolerability in tumour-bearing mice (MAC13 tumours): no negative signs

Molecule: CCCCN [Butyl]
- σ-2 R affinity pKi ± SEM (n) (sigma-2 receptor): 3.26 ± 0.05 (3)
- Ki (sigma-2 receptor; read-out: σ-2 R affinity Ki): 550 µM

Molecule: CCCCCCCCCCN [Decyl, decylammonium]
- σ-2 R affinity pKi ± SEM (n) (sigma-2 receptor): 5.41 ± 0.07 (3)
- Ki (sigma-2 receptor; read-out: σ-2 R affinity Ki): 3.9 µM

Molecule: CCC(C)NC(C)CC (stereo not drawn) [Di-sec-butyl, di-sec-butylammonium]
- σ-2 R affinity pKi ± SEM (n) (sigma-2 receptor): 5.2 ± 0.2 (3)
- Ki (sigma-2 receptor; read-out: σ-2 R affinity Ki): 6.3 µM

Molecule: CCCCNCCCC [Dibutyl]
- σ-2 R affinity pKi ± SEM (n) (sigma-2 receptor): 5.64 ± 0.07 (3)
- Ki (sigma-2 receptor; read-out: σ-2 R affinity Ki): 2.3 µM

Molecule: C1CCC(NC2CCCCC2)CC1 [Dicyclohexyl, dicyclohexylammonium]
- Ki (sigma-2 receptor): 0.138 µM
- IC50 (MDA-MB-468 cells [2]; Homo sapiens, MDA-MB-468, 24 h, read-out: pIC50 reduction of cell metabolism (converted)): 126 µM
- effect on MCF7 cells in MTS assay (MCF7 cells; MCF7 cells (sigma-2 only)): without effect

Molecule: CCNCC.Cl [Diethyl]
- σ-2 R affinity pKi ± SEM (n) (sigma-2 receptor): <3 (3)

Molecule: CC(C)CNCC(C)C [Diisobutyl]
- σ-2 R affinity pKi ± SEM (n) (sigma-2 receptor): 5.2 ± 0.2 (3)
- Ki (sigma-2 receptor; read-out: σ-2 R affinity Ki): 6.6 µM

Molecule: CC(C)NC(C)C [Diisopropyl]
- σ-2 R affinity pKi ± SEM (n) (sigma-2 receptor): 4.1 ± 0.1 (3)
- Ki (sigma-2 receptor; read-out: σ-2 R affinity Ki): 71 µM

Molecule: CNC [Dimethyl]
- σ-2 R affinity pKi ± SEM (n) (sigma-2 receptor): <3 (3)

Molecule: CCCCCCCCNCCCCCCCC [Dioctyl, dioctylammonium]
- σ-2 R affinity pKi ± SEM (n) (sigma-2 receptor): 7.9 ± 0.5 (3)
- Ki (sigma-2 receptor; read-out: Ki for sigma-2 receptors): 0.013 µM
- Ki (sigma-2 receptor; read-out: σ-2 R affinity Ki): 0.014 µM
- pIC50 reduction of cell metabolism (MDA-MB-468 cells [2]): 5.0 ± 0.2
- behaviour in the calcium buffer (MDA-MB-468 cells [3]; calcium response could not be assessed): precipitation was observed

Molecule: CCCCCNCCCCC [Dipentyl, dipentylammonium]
- σ-2 R affinity pKi ± SEM (n) (sigma-2 receptor): 6.9 ± 0.2 (3)
- Ki (sigma-2 receptor; read-out: σ-2 R affinity Ki): 0.12 µM
- mACh R affinity pKi ± SEM (n) [4]: 3.4 ± 0.2 (5)
- Ki [4]: 380 µM
- mACh R Ki/σ-1 R Ki [4]: 8840
- time spent immobile, forced-swim test (mice [1]; 5 mg.kg−1 i.p., 6 minutes, control 233 ± 10): 80 ± 13 s
- time spent immobile, forced-swim test (mice [1]; [9]): 185 ± 5 s
- time spent immobile, tail suspension test (mice [5]; 5 mg.kg−1, 6 minutes, control 235 ± 19): 116 ± 7 s
- time spent immobile, tail suspension test (mice [5]; [9]): 182 ± 30 s
- locomotion (mice [6]; 5 mg.kg−1 alone): 128 ± 19 events in 15 minutes
- locomotion (mice [6]; [9]): 114 ± 14 events in 15 minutes
- pIC50 serotonin reuptake (human 5-HT transporter): 3.0 ± 0.2
- IC50 (human 5-HT transporter): 1100 µM
- pIC50 dopamine transport [7]: 3.2 ± 0.2
- IC50 [7]: 600 µM
- pIC50 noradrenaline transport [8]: 3.6 ± 0.1
- IC50 [8]: 200 µM

Molecule: CCCNCCC.Cl [Dipropyl]
- σ-2 R affinity pKi ± SEM (n) (sigma-2 receptor): 4.10 ± 0.07 (3)
- Ki (sigma-2 receptor; read-out: σ-2 R affinity Ki): 79 µM

Molecule: CNCCC(Oc1ccc(C(F)(F)F)cc1)c1ccccc1 (stereo not drawn) [Fluoxetine, fluoxetine, reference compound]
- time spent immobile, forced-swim test (mice [1]; 10 mg.kg−1 i.p., 6 minutes, control 233 ± 10): 153 ± 19 s
- time spent immobile, tail suspension test (mice [5]; 10 mg.kg−1, 6 minutes, control 235 ± 19): 126 ± 22 s

Molecule: CCCCCCN.Cl [Hexyl]
- σ-2 R affinity pKi ± SEM (n) (sigma-2 receptor): 5.1 ± 0.2 (3)
- Ki (sigma-2 receptor; read-out: σ-2 R affinity Ki): 7.8 µM

Molecule: CCCCCCCCN.Cl [Octyl]
- σ-2 R affinity pKi ± SEM (n) (sigma-2 receptor): 5.2 ± 0.2 (3)
- Ki (sigma-2 receptor; read-out: σ-2 R affinity Ki): 6.2 µM

Molecule: CCCCCN [Pentyl]
- σ-2 R affinity pKi ± SEM (n) (sigma-2 receptor): 3.9 ± 0.1 (3)
- Ki (sigma-2 receptor; read-out: σ-2 R affinity Ki): 130 µM

Molecule: CCCN [Propyl]
- σ-2 R affinity pKi ± SEM (n) (sigma-2 receptor): <3 (3)

Molecule: C[C@@H]1CN(CCCn2c3ccccc3c3ccccc32)C[C@H](C)N1 [Rimcazole, 9-[3-(cis−3,5-dimethyl-1-piperizinyl)propyl]-9H-carbazole dihydrochloride, reference compound]
- mACh R affinity pKi ± SEM (n) [4]: 4.49 ± 0.10 (7)
- mACh R affinity pKi ± SEM (n) ([4]; listed as rimcazole): 4.5 ± 0.1
- Ki [4]: 32 µM

Molecule: CCCC[N+](CCCC)(CCCC)CCCC [Tetrabutyl, tetrabutylammonium]
- Ki (sigma-2 receptor): 60 µM

Molecule: CC[N+](CC)(CC)CC [Tetraethyl]
- σ-2 R affinity pKi ± SEM (n) (sigma-2 receptor): <3 (3)

Molecule: CCCCCCCCCCCCN(CCCCCCCCCCCC)CCCCCCCCCCCC [Tridodecyl]
- σ-2 R affinity pKi ± SEM (n) (sigma-2 receptor): 4.1 ± 0.6 (3)
- Ki (sigma-2 receptor; read-out: σ-2 R affinity Ki): 76 µM

Molecule: CCN(CC)CC [Triethyl]
- σ-2 R affinity pKi ± SEM (n) (sigma-2 receptor): 3.66 ± 0.04 (3)
- Ki (sigma-2 receptor; read-out: σ-2 R affinity Ki): 220 µM

Molecule: CCCCCCN(CCCCCC)CCCCCC [Trihexyl, trihexylammonium]
- σ-2 R affinity pKi ± SEM (n) (sigma-2 receptor): 6.63 ± 0.03 (3)
- Ki (sigma-2 receptor; read-out: σ-2 R affinity Ki): 0.23 µM

Molecule: CC(C)CN(CC(C)C)CC(C)C.Cl [Triisobutyl]
- σ-2 R affinity pKi ± SEM (n) (sigma-2 receptor): 5.46 ± 0.06 (3)
- Ki (sigma-2 receptor; read-out: σ-2 R affinity Ki): 3.5 µM

Molecule: CN(C)C.Cl [Trimethyl]
- σ-2 R affinity pKi ± SEM (n) (sigma-2 receptor): <3 (3)

Molecule: CCCCCCCCN(CCCCCCCC)CCCCCCCC.Cl [Trioctyl]
- σ-2 R affinity pKi ± SEM (n) (sigma-2 receptor): 3.74 ± 0.06 (3)
- Ki (sigma-2 receptor; read-out: σ-2 R affinity Ki): 180 µM

Molecule: CCCCCN(CCCCC)CCCCC [Tripentyl, tripentylammonium]
- σ-2 R affinity pKi ± SEM (n) (sigma-2 receptor): 6.1 ± 0.1 (3)
- Ki (sigma-2 receptor; read-out: σ-2 R affinity Ki): 0.78 µM
- mACh R affinity pKi ± SEM (n) [4]: 4.3 ± 0.4 (4)
- Ki [4]: 47 µM
- mACh R Ki/σ-1 R Ki [4]: 3130
- effect on immobility time, forced-swim test (mice [1]; doses up to 10 mg.kg−1): did not have any significant effect

Molecule: CCCN(CCC)CCC [Tripropyl]
- σ-2 R affinity pKi ± SEM (n) (sigma-2 receptor): 4.36 ± 0.07 (3)
- Ki (sigma-2 receptor; read-out: σ-2 R affinity Ki): 44 µM

Molecule: triisopentylammonium
- higher affinity for sigma-2 receptors over sigma-1 receptors (sigma-2 receptor): 200 fold
- σ-2 R affinity pKi ± SEM (n) (sigma-2 receptor): 6.40 ± 0.09 (3)
- Ki (sigma-2 receptor; read-out: σ-2 R affinity Ki): 0.4 µM
- pIC50 reduction of cell metabolism (MDA-MB-468 cells [2]): 2.96 ± 0.06
- pIC50 reduction of cell metabolism, non-targeting control (MDA-MB-468 cells [2]): 2.9 ± 0.2
- effect on MCF7 cells in MTS assay (MCF7 cells): without effect
- concentration showing a calcium response (MDA-MB-468 cells [3]; data not shown): ≥ 1 mM
- mACh R affinity pKi ± SEM (n) [4]: 3.60 ± 0.11 (5)
- Ki [4]: 251 µM
- mACh R Ki/σ-1 R Ki [4]: 3.4
- IC50 (human 5-HT transporter): 7800 µM
- IC50 [7]: 1600 µM
- IC50 [8]: 7800 µM
- pIC50 reduction in MAC13 cell metabolism (MAC13 cells): 4.4 ± 0.2
- MAC13 tumour growth compared to vehicle control (MAC13 tumours): statistically significant reduction in tumour growth
- tolerability in tumour-bearing mice (MAC13 tumours): no negative signs
